Data: patent publication EP0472304A2, “Pharmaceutical compositions containing therapeutically active organosilane derivatives and process for preparing same” (Richter Gedeon Vegyészeti Gyár R.T., priority 1990, dated 1992)
Marks after values point to notes of the source that are not given here.

Tests used:
[1] = tested on: Straub's tail; test: Straub's tail test (morphine-induced); format: in vivo, male OF-1 mice; conditions: Mus musculus, ip; mice, i.p., pretreatment 20 min before reading; 60 mg/kg i.p. morphine hydrochloride
Method: Method 2: Straub's tail test
The method of Novack [Drug Development Res. 2, 383 (1982)] was used with a slight modification. Groups consisting of 10 male OF-1 mice each weighing 19 to 21 g were intraperitoneally treated with 60 mg/kg of morphine hydrochloride. The formation of Straub's tail was judged 15 minutes after the morphine treatment. This was considered to be positive when the animal kept his tail permanently upwards at an angle being steeper than 45°. A pretreatment was carried out with various doses of the compound to be tested 20 minutes before the time of reading. The ED50 value, i.e. the dose inhibiting the positive response in 50% of the animals, was calculated by using the method of Litchfield and Wilcoxon.
(The above author found a good relation between the activity shown in the above test and the clinical effectivity of central muscle relaxants.)

[2] = tested on: flexor reflex; test: Investigation of the flexor reflex on anaesthetized cats; format: in vivo; conditions: chloralose-anaesthetized cats
Text: Method 3: Investigation of the flexor reflex on anaesthetized cats
Chloralose-anaesthetized cats of both sexes weighing 2.2-5.4 kg each were used in these experiments. The flexor reflex of the animals was studied by using the quantitative electromyographic method of Farkas et al [Pharmacol. Res. Comm. 20, Suppl. 1, 141 (1988)].
The results summarized in Table 1 are the values calculated from the average results of 4 to 8 experiments. The duration of effect was characterized by the time passing from the administration of this dose until the return to 75% of the control value (T75%).
The pharmacological activities of the compounds showing the most prominent effects together with the activity of tolperisone used as reference drug are shown in Table 1.

[3] = tested on: GYKI-20039-induced tremor; test: Test on the GYKI-20039-induced tremor; format: in vivo, male CFLP mice; conditions: Mus musculus, iv; mice, pretreatment time 0 min; dose causing 50% inhibition of tremor induced by 10 mg/kg i.p. GYKI-20039
Method: Method 1: Test on the GYKI-20039-induced tremor
Groups consisting of 10 to 20 male CFLP mice each weighing 19 to 21 g were intraperitoneally (i.p.) treated with 10 mg/kg of GYKI-20039 (test substance). Similarly to the structurally related compound of code number LON-954, GYKI-20039 induces a tremor on mice which is considered as the experimental model of the Parkinson's disease [Coward et al., Psychopharmacology 52, 165 (1977); Andrasi et al. IX Internat. Congress of Neuropathology, 1-98, 209, Vienna 1982]. The tremor induced by GYKI-20039 reaches a maximum strength 4 to 8 minutes following administration of the test substance, then it continuously diminishes and is finished within about 1 hour. According to our experiences obtained on ten known central muscle relaxants, this tremor can be inhibited by central muscle relaxants in a dose-dependent manner and is useful for the assay (evaluation) of the central muscle relaxant effects. After administration of the test substance, the mice were suspended on an isometric dynamometer in a light plastic box and the strength of the tremor was measured and quantified by electronic integration. The tremor strength of the mice was averaged in the 4th-8th minutes after treatment with the test substance.
The animals were pretreated with various doses of the muscle relaxants to be tested before the treatment with the test substance. […]

[4] = 10 mg/kg i.v., time until return to 75% of the control value

Compound | ED50 [1] | Duration of effect T75% ([2]; i.v., the effect of 5 mg/kg was investigated) | Duration of effect T75% [2, 4] | ED50 [3]
C[Si](C)(CN1CCCCC1)c1ccccc1.O=C(O)/C=C/C(=O)O [Compound 1, N-[(dimethyl-phenylsilyl)methyl]piperidine fumarate] | 30.7 mg/kg |  |  | 
C[Si](C)(CN1CCCC1)c1ccccc1.Cl [Compound 3, N-[(dimethyl-phenylsilyl)methyl]pyrrolidine hydrochloride] | 37.7 mg/kg | 50** min |  | 
C[Si](C)(CN1CCCCC1)c1ccc(F)cc1.O=C(O)/C=C/C(=O)O [Compound 4, N-([dimethyl-(4-fluorophenyl)silyl]methyl)piperidine fumarate] | 19.1 mg/kg |  | 180 min | 
C[Si](C)(CN1CCCCC1)c1ccc(F)cc1.Cl [Compound 5, N-([dimethyl-(4-fluorophenyl)silyl]methyl)piperidine hydrochloride] | 17.8 mg/kg |  | > 180 min | 
C[Si](C)(CN1CCCC1)c1ccc(F)cc1.Cl [Compound 6, N-([dimethyl-(4-fluorophenyl)silyl]methyl)pyrrolidine hydrochloride] | 26.9 mg/kg |  | > 180 min | 
Cc1ccc(C(=O)C(C)CN2CCCCC2)cc1 (stereo not drawn) [Tolperisone, tolperisone, reference compound] | 63 mg/kg |  | 50 min | 10.2 mg/kg
